BindingDB's records for doi:10.1021/acs.jmedchem.9b00882 (Shenyang Pharmaceutical University, 2019)
Starred links: 1 amine or outer side, 2 acyl side, 3 side chain; linkers in the order of their positions; H or OH if unused. Positions of bridges follow the written chain, without caps; N, C: chain ends. Non-standard residues stand in square brackets, D forms with d. Residues, ends and D or L forms follow the SMILES beside them. ξ: configuration not given here. mXylylene = c1cc(C[*:1])cc(C[*:2])c1; ξhCys = NC(CCS)C(=O)O

What was measured:
[1] = Inhibition of HIV1 gp41-induced cell-cell fusion between viral envelope expressing human HL2/3 cells to CD4/CCR5 receptor expressing TZM-bl cells after 6 hrs by luciferase assay
[2] = molecular target: Envelope glycoprotein gp160 (Human immunodeficiency virus 1, UniProt Q6QLK5); experiment: Inhibition of HIV1 gp41-induced cell-cell fusion between viral envelope expressing human HL2/3 cells to CD4/CCR5 receptor expressing TZM-bl cells after 6 hrs by luciferase assay
[3] = Inhibition of HIV1 gp41-induced cell-cell fusion between viral envelope expressing human HL2/3 cells to CD4/CCR5 receptor expressing TZM-bl cells at 4:1 compound to HP23 ratio incubated for 6 hrs by luciferase reporter gene assay
[4] = Inhibition of HIV1 gp41-induced cell-cell fusion between viral envelope expressing human HL2/3 cells to CD4/CCR5 receptor expressing TZM-bl cells at 2:1 ratio of hCS6ERE to compound incubated for 6 hrs by luciferase reporter gene assay
[5] = Inhibition of HIV1 gp41-induced cell-cell fusion between viral envelope expressing human HL2/3 cells to CD4/CCR5 receptor expressing TZM-bl cells at 4:1 ratio of hCS6ERE to compound incubated for 6 hrs by luciferase reporter gene assay
[6] = Inhibition of HIV1 gp41-induced cell-cell fusion between viral envelope expressing human HL2/3 cells to CD4/CCR5 receptor expressing TZM-bl cells at 1:1 ratio of hCS6ERE to compound incubated for 6 hrs by luciferase reporter gene assay

Chain of Envelope glycoprotein gp160 (Q6QLK5 whole entry, the tested form may be a part): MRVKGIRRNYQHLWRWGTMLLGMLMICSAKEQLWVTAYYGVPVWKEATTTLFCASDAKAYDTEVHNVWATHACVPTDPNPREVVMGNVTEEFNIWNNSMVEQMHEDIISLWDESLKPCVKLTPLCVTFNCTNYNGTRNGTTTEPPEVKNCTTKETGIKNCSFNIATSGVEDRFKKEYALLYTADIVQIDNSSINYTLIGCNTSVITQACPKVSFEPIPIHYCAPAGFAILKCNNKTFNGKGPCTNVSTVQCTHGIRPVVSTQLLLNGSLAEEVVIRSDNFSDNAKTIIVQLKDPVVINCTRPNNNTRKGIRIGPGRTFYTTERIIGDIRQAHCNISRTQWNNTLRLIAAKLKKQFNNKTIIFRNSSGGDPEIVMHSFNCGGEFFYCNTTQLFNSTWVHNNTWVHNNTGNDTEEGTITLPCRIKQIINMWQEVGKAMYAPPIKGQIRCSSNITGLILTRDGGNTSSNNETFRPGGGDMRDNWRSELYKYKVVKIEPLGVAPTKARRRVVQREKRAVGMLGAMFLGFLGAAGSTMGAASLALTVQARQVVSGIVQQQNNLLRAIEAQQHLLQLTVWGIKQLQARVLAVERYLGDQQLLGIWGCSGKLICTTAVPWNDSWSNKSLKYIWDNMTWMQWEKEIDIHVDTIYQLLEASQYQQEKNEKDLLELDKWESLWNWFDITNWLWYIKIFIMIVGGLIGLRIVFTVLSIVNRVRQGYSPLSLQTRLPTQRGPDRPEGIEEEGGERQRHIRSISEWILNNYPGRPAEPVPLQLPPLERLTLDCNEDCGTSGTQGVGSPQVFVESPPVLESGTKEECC

`CC[C@H](C)[C@H](NC(C)=O)C(=O)N[C@H]1CSCc2cccc(c2)CSC[C@@H](C(=O)N[C@@H](C)C(=O)N[C@@H](C)C(=O)N[C@@H](CCC(N)=O)C(=O)N[C@@H](CCC(=O)O)C(=O)N[C@@H](CCC(N)=O)C(=O)N[C@@H](CCC(N)=O)C(=O)N[C@@H](CCC(=O)O)C(=O)N[C@@H](CCCCN)C(=O)N[C@@H](CC(N)=O)C(=O)N[C@@H](CCC(=O)O)C(=O)N[C@@H](C)C(=O)N[C@@H](C)C(=O)N[C@@H](CC(C)C)C(=O)N[C@@H](CCCNC(=N)N)C(=O)N[C@@H](CCC(=O)O)C(=O)N[C@@H](CC(C)C)C(N)=O)NC(=O)[C@H]([C@@H](C)CC)NC(=O)[C@H](CC(C)C)NC(=O)[C@H](C)NC1=O` (Ac-ICALICAAQEQQEKNEAALREL-NH2; linker 2-6 via mXylylene) showed an EC50 [1] of 147 nM.
With `CC[C@H](C)[C@H](NC(C)=O)C(=O)N[C@@H](CCC(=O)O)C(=O)N[C@@H](C)C(=O)N[C@@H](CC(C)C)C(=O)N[C@H](C(=O)N[C@H]1CSCc2cccc(c2)CSC[C@@H](C(=O)N[C@@H](CCC(N)=O)C(=O)N[C@@H](CCC(N)=O)C(=O)N[C@@H](CCC(=O)O)C(=O)N[C@@H](CCCCN)C(=O)N[C@@H](CC(N)=O)C(=O)N[C@@H](CCC(=O)O)C(=O)N[C@@H](C)C(=O)N[C@@H](C)C(=O)N[C@@H](CC(C)C)C(=O)N[C@@H](CCCNC(=N)N)C(=O)N[C@@H](CCC(=O)O)C(=O)N[C@@H](CC(C)C)C(N)=O)NC(=O)[C@H](CCC(N)=O)NC(=O)[C@H](C)NC(=O)[C@H](C)NC1=O)[C@@H](C)CC` (Ac-IEALICAAQCQQEKNEAALREL-NH2; linker 6-10 via mXylylene) the EC50 [1] was 96 nM.
`CC[C@H](C)[C@H](NC(C)=O)C(=O)N[C@@H](CCC(=O)O)C(=O)N[C@@H](C)C(=O)N[C@@H](CC(C)C)C(=O)N[C@H](C(=O)N[C@@H](CCCNC(=N)N)C(=O)N[C@@H](C)C(=O)N[C@@H](C)C(=O)N[C@H]1CSCc2cccc(c2)CSC[C@@H](C(=O)N[C@@H](CCCCN)C(=O)N[C@@H](CC(N)=O)C(=O)N[C@@H](CCC(=O)O)C(=O)N[C@@H](C)C(=O)N[C@@H](C)C(=O)N[C@@H](CC(C)C)C(=O)N[C@@H](CCCNC(=N)N)C(=O)N[C@@H](CCC(=O)O)C(=O)N[C@@H](CC(C)C)C(N)=O)NC(=O)[C@H](CCC(N)=O)NC(=O)[C@H](CCC(N)=O)NC(=O)[C@H](CCC(=O)O)NC1=O)[C@@H](C)CC` (Ac-IEALIRAACEQQCKNEAALREL-NH2; linker 9-13 via mXylylene) showed an EC50 [1] of 214 nM.
For `CC[C@H](C)[C@H](NC(C)=O)C(=O)N[C@@H](CCC(=O)O)C(=O)N[C@@H](C)C(=O)N[C@@H](CC(C)C)C(=O)N[C@H](C(=O)N[C@@H](CCCNC(=N)N)C(=O)N[C@@H](C)C(=O)N[C@@H](C)C(=O)N[C@@H](CCC(N)=O)C(=O)N[C@H]1CSCc2cccc(c2)CSC[C@@H](C(=O)N[C@@H](CC(N)=O)C(=O)N[C@@H](CCC(=O)O)C(=O)N[C@@H](C)C(=O)N[C@@H](C)C(=O)N[C@@H](CC(C)C)C(=O)N[C@@H](CCCNC(=N)N)C(=O)N[C@@H](CCC(=O)O)C(=O)N[C@@H](CC(C)C)C(N)=O)NC(=O)[C@H](CCC(=O)O)NC(=O)[C@H](CCC(N)=O)NC(=O)[C@H](CCC(N)=O)NC1=O)[C@@H](C)CC` (Ac-IEALIRAAQCQQECNEAALREL-NH2; linker 10-14 via mXylylene), the EC50 [1] was 171 nM.
With `CC[C@H](C)[C@H](NC(C)=O)C(=O)N[C@@H](CCC(=O)O)C(=O)N[C@@H](C)C(=O)N[C@@H](CC(C)C)C(=O)N[C@H](C(=O)N[C@@H](CCCNC(=N)N)C(=O)N[C@@H](C)C(=O)N[C@@H](C)C(=O)N[C@@H](CCC(N)=O)C(=O)N[C@@H](CCC(=O)O)C(=O)N[C@@H](CCC(N)=O)C(=O)N[C@@H](CCC(N)=O)C(=O)N[C@H]1CSCc2cccc(c2)CSC[C@@H](C(=O)N[C@@H](C)C(=O)N[C@@H](CC(C)C)C(=O)N[C@@H](CCCNC(=N)N)C(=O)N[C@@H](CCC(=O)O)C(=O)N[C@@H](CC(C)C)C(N)=O)NC(=O)[C@H](CCC(=O)O)NC(=O)[C@H](CC(N)=O)NC(=O)[C@H](CCCCN)NC1=O)[C@@H](C)CC` (Ac-IEALIRAAQEQQCKNECALREL-NH2; linker 13-17 via mXylylene) the EC50 [1] was 132 nM.
Work on `CC[C@H](C)[C@H](NC(C)=O)C(=O)N[C@@H](CCC(=O)O)C(=O)N[C@@H](C)C(=O)N[C@@H](CC(C)C)C(=O)N[C@H](C(=O)N[C@@H](CCCNC(=N)N)C(=O)N[C@@H](C)C(=O)N[C@@H](C)C(=O)N[C@@H](CCC(N)=O)C(=O)N[C@@H](CCC(=O)O)C(=O)N[C@@H](CCC(N)=O)C(=O)N[C@@H](CCC(N)=O)C(=O)N[C@@H](CCC(=O)O)C(=O)N[C@@H](CCCCN)C(=O)N[C@@H](CC(N)=O)C(=O)N[C@H]1CSCc2cccc(c2)CSC[C@@H](C(=O)N[C@@H](CCC(=O)O)C(=O)N[C@@H](CC(C)C)C(N)=O)NC(=O)[C@H](CC(C)C)NC(=O)[C@H](C)NC(=O)[C@H](C)NC1=O)[C@@H](C)CC` (Ac-IEALIRAAQEQQEKNCAALCEL-NH2; linker 16-20 via mXylylene) yielded an EC50 [1] of 166 nM.
In the case of `CC[C@H](C)[C@H](NC(C)=O)C(=O)N[C@@H](CCC(=O)O)C(=O)N[C@@H](C)C(=O)N[C@@H](CC(C)C)C(=O)N[C@H](C(=O)N[C@@H](CCCNC(=N)N)C(=O)N[C@@H](C)C(=O)N[C@@H](C)C(=O)N[C@@H](CCC(N)=O)C(=O)N[C@@H](CCC(=O)O)C(=O)N[C@@H](CCC(N)=O)C(=O)N[C@@H](CCC(N)=O)C(=O)N[C@@H](CCC(=O)O)C(=O)N[C@@H](CCCCN)C(=O)N[C@@H](CC(N)=O)C(=O)N[C@@H](CCC(=O)O)C(=O)N[C@H]1CSCc2cccc(c2)CSC[C@@H](C(=O)N[C@@H](CC(C)C)C(N)=O)NC(=O)[C@H](CCCNC(=N)N)NC(=O)[C@H](CC(C)C)NC(=O)[C@H](C)NC1=O)[C@@H](C)CC` (Ac-IEALIRAAQEQQEKNECALRCL-NH2; linker 17-21 via mXylylene), the EC50 [1] is reported as 123 nM.
`CC[C@H](C)[C@H](NC(C)=O)C(=O)N[C@@H](CCC(=O)O)C(=O)N[C@@H](C)C(=O)N[C@@H](CC(C)C)C(=O)N[C@H](C(=O)NC1CCSCc2cccc(c2)CSCCC(C(=O)N[C@@H](CCC(N)=O)C(=O)N[C@@H](CCC(N)=O)C(=O)N[C@@H](CCC(=O)O)C(=O)N[C@@H](CCCCN)C(=O)N[C@@H](CC(N)=O)C(=O)N[C@@H](CCC(=O)O)C(=O)N[C@@H](C)C(=O)N[C@@H](C)C(=O)N[C@@H](CC(C)C)C(=O)N[C@@H](CCCNC(=N)N)C(=O)N[C@@H](CCC(=O)O)C(=O)N[C@@H](CC(C)C)C(N)=O)NC(=O)[C@H](CCC(N)=O)NC(=O)[C@H](C)NC(=O)[C@H](C)NC1=O)[C@@H](C)CC` (some centres not stated) (Ac-IEALI[ξhCys]AAQ[ξhCys]QQEKNEAALREL-NH2; linker 6-10 via mXylylene) gave an EC50 [1] of 34 nM.
Work on `CC[C@H](C)[C@H](NC(C)=O)C(=O)N[C@@H](CCC(=O)O)C(=O)N[C@@H](C)C(=O)N[C@@H](CC(C)C)C(=O)N[C@H](C(=O)NC1CCSCc2cccc(c2)CSCCC(C(=O)N[C@@H](CCC(N)=O)C(=O)N[C@@H](CCC(N)=O)C(=O)N[C@@H](CCCNC(=N)N)C(=O)N[C@@H](CCCCN)C(=O)N[C@@H](CC(N)=O)C(=O)N[C@@H](CCC(=O)O)C(=O)N[C@@H](CCC(=O)O)C(=O)N[C@@H](C)C(=O)N[C@@H](CC(C)C)C(=O)N[C@@H](CCCNC(=N)N)C(=O)N[C@@H](CCC(=O)O)C(=O)N[C@@H](CC(C)C)C(N)=O)NC(=O)[C@H](CCC(N)=O)NC(=O)[C@H](C)NC(=O)[C@H](C)NC1=O)[C@@H](C)CC` (some centres not stated) (Ac-IEALI[ξhCys]AAQ[ξhCys]QQRKNEEALREL-NH2; linker 6-10 via mXylylene) yielded an EC50 [1] of 22 nM.
In the case of `CC[C@H](C)[C@H](NC(C)=O)C(=O)N[C@@H](CCC(=O)O)C(=O)N[C@H]1CSCc2cccc(c2)CSC[C@@H](C(=O)N[C@@H](C)C(=O)N[C@@H](CCC(N)=O)C(=O)N[C@@H](CCC(=O)O)C(=O)N[C@@H](CCC(N)=O)C(=O)N[C@@H](CCC(N)=O)C(=O)N[C@@H](CCC(=O)O)C(=O)N[C@@H](CCCCN)C(=O)N[C@@H](CC(N)=O)C(=O)N[C@@H](CCC(=O)O)C(=O)N[C@@H](C)C(=O)N[C@@H](C)C(=O)N[C@@H](CC(C)C)C(=O)N[C@@H](CCCNC(=N)N)C(=O)N[C@@H](CCC(=O)O)C(=O)N[C@@H](CC(C)C)C(N)=O)NC(=O)[C@H](CCCNC(=N)N)NC(=O)[C@H]([C@@H](C)CC)NC(=O)[C@H](CC(C)C)NC1=O` (Ac-IECLIRCAQEQQEKNEAALREL-NH2; linker 3-7 via mXylylene), the EC50 [1] is reported as 136 nM.
With `CC[C@H](C)[C@H](NC(C)=O)C(=O)N[C@@H](CCC(=O)O)C(=O)N[C@@H](CCC(=O)O)C(=O)N[C@@H](CC(C)C)C(=O)N[C@H](C(=O)NC1CCSCc2cccc(c2)CSCCC(C(=O)N[C@@H](CCC(N)=O)C(=O)N[C@@H](CCC(N)=O)C(=O)N[C@@H](CCCNC(=N)N)C(=O)N[C@@H](CCCCN)C(=O)N[C@@H](CC(N)=O)C(=O)N[C@@H](CCC(=O)O)C(=O)N[C@@H](CCC(=O)O)C(=O)N[C@@H](C)C(=O)N[C@@H](CC(C)C)C(=O)N[C@@H](CCCNC(=N)N)C(=O)N[C@@H](CCC(=O)O)C(=O)N[C@@H](CC(C)C)C(N)=O)NC(=O)[C@H](CCC(N)=O)NC(=O)[C@H](C)NC(=O)[C@H](C)NC1=O)[C@@H](C)CC` (some centres not stated) (Ac-IEELI[ξhCys]AAQ[ξhCys]QQRKNEEALREL-NH2; linker 6-10 via mXylylene) the EC50 [2] was 7.2 nM and the EC50 [3] was 7.1 nM.
Work on Ac-IEALIRAAQEQQEKNEAALREL-NH2 yielded an EC50 [1] of 127 nM.
With H-EMTWEEWEKKIEEYTKKIEEILK-OH the EC50 [4] was 5.3 nM, the EC50 [5] was 1.7 nM and the EC50 [1] was 11 nM. The EC50 [6] was 11 nM.
